Assay results: patent US9157904B2, “Wnt antagonists and methods of treatment and screening” (OncoMed Pharmaceuticals, Inc., priority 2010, dated 2015)

What was measured:
[1] = Pharmacokinetics of FZD8-Fc in rat; assay type: in vivo, Sprague Dawley rats; details: tail vein, plasma
Method: The pharmacokinetics of FZD8-Fc (54F03) were assessed in rats in a two week pharmacokinetics (PK) study using doses of 2 mg/kg and 10 mg/kg. Sprague Dawley rats, five males in each group, were dosed with FZD8-Fc via the tail vein at 2 mg/kg or 10 mg/kg and followed for two weeks with samples collected at the time points 1, 24, 48, 72, 96, 168, 240, and 336 hours. At each time point, 1 ml of blood was collected into potassium-EDTA tubes and centrifuged. The plasma supernatants were collected and frozen until the samples were analyzed.
The level of FZD8-Fc fusion protein present in the plasma at each time point was quantified and the half-life of FZD8-Fc was calculated for the two doses.

[2] = test system: PN13 tumors; assay: Muc16 immunohistochemistry of treated PN13 tumors; assay type: in vivo, NOD/SCID mice; details: vs control antibody
Method: The cell differentiation capability of FZD8-Fc was also evaluated in the OMP-PN13 pancreas tumor xenograft model. Dissociated OMP-PN13 cells (50,000 per animal) were injected subcutaneously into 6-8 week old male NOD/SCID mice. Tumor growth was monitored weekly and tumor measurements were initiated once tumors were palpable. On day 40 mice with average tumor volume of 114 mm^3 were randomized into 4 groups of 10 animals each. Animals were injected with either control antibody or FZD8-Fc (15 mg/kg). Administration of the FZD8-Fc and control antibody was performed via injection into the intraperitoneal cavity, twice weekly. After 19 days of treatment, the tumors were excised and immunohistochemistry analysis was performed using standard techniques. Briefly, tumors were fixed in formalin, embedded in paraffin, and tumor sections of 4 μm thickness were cut. After deparaffinization and hydration, the tumor sections were subjected to an antigen retrieval process in Tris buffer (pH 9.5). Sections were incubated with hydrogen peroxide (Sigma-Aldrich, St Louis, Mo.) for 10 minutes to block endogenous peroxidases. […]
Tumor sections from PN13 tumors treated with control antibody or FZD8-Fc were obtained and treated as described above. […] The bound antibody was detected using the immunohistochemistry protocol described above.

[3] = test system: C28 tumors; assay: CK20 immunohistochemistry of treated C28 tumors; assay type: in vivo, NOD/SCID mice; details: vs control antibody
Method: Control and treated tumors from the C28 xenograft study described above (Example 6) were harvested at the end of the study. The tumors were excised and immunohistochemistry analysis was performed using standard techniques. Briefly, tumors were fixed in formalin, embedded in paraffin, and tumor sections of 4 um thickness were cut. After deparaffinization and hydration, the tumor sections were subjected to an antigen retrieval process in Tris buffer (pH 9.5). Sections were incubated with hydrogen peroxide (Sigma-Aldrich, St Louis, Mo.) for 10 minutes to block endogenous peroxidases. Anti-CK20 (clone Ks20.8, Dako, Carpinteria, Calif.) antibody in blocking buffer at 1:200 dilution (3% NHS, 1% BSA, 0.1% Tween-20, in PBS) was added to each section and incubated for 1 hour. Slides were rinsed 3 times in PBST for 5 minutes each. Anti-mouse secondary antibody conjugated with HRP (ImmPRESS™ anti-mouse Ig, Vector Laboratories Inc., Burlingame, Calif.) was added to the slides and incubated for 30 minutes. After multiple washes with PBST, Vector Nova Red substrate (Vector Laboratories Inc., Burlingame, Calif.) was added for localization of CK20 antigen.

[4] = test system: PN21 tumors; assay: Alcian blue and Ki67 staining of treated PN21 tumors; assay type: in vivo, NOD/SCID mice
Method: The cell differentiation capability of FZD8-Fc was also evaluated in the OMP-PN21 pancreas tumor xenograft model. PN21 tumors from studies described in Example 8 were harvested and fixed in formalin, embedded in paraffin, and tumor sections of 4 μm thickness were cut. After deparaffinization and hydration, the tumor sections were subjected to an antigen retrieval process in Tris buffer (pH 9.5). Sections were incubated with hydrogen peroxide (Sigma-Aldrich, St Louis, Mo.) for 10 minutes to block endogenous peroxidases. Anti-Ki67 antibody (clone MIB-1, Dako, Carpinteria, Calif.) in blocking buffer (3% NHS, 1% BSA, 0.1% Tween-20 in PBS) at 1:200 dilution was added to each section and incubated for 1 hour. Slides were rinsed 3 times in PBST for 5 minutes each. Anti-mouse secondary antibody conjugated with HRP (ImmPRESS™ anti-mouse, Vector Laboratories Inc., Burlingame, Calif.) was added to the slides and incubated for 30 minutes. After multiple washes with PBST, Vector Nova Red substrate (Vector Laboratories Inc., Burlingame, Calif.) was added for localization of Ki67 antigen. The sections were treated with aqueous acetic acid for 5 minutes at room temperature. The sections were then treated with 1% alcian blue in 3% aqueous acetic acid for 30 minutes and washed with water. Sections were counter-stained in neutral fast red, dehydrated and mounted. […]

[5] = test system: C28 colon tumor; assay: C28 colon tumor xenograft, FZD8-Fc variants (Example 17); assay type: in vivo, NOD/SCID mice; details: C28 established tumors; 15 mg/kg i.p. twice a week; after three weeks of treatment
Method: Dissociated C28 colon tumor cells (10,000 cells) were injected subcutaneously into 6-8 week old male NOD/SCID mice. Tumors were allowed to grow for 56 days until they reached an average volume of 175 mm^3. The mice were randomized (n=10 per group) and treated with FZD8-Fc constructs 54F03, 54F23, 54F26, or a control antibody at a dose of 15 mg/kg twice a week. Administration of the FZD8-Fc variants and control antibody was performed via injection into the intraperitoneal cavity. Tumor growth was monitored and tumor volumes were measured with electronic calipers at the indicated time points. Data are expressed as mean±S.E.M.

[6] = Pharmacokinetics of FZD8-Fc variants in rats; details: rat, tail vein, 10 mg/kg, plasma
Method: The pharmacokinetics of several FZD8-Fc variants were assessed in rats in a two week pharmacokinetics (PK) study. […] Sprague Dawley rats, five males in each group, were dosed with FZD8-Fc variants via the tail vein at 10 mg/kg and followed for two weeks with samples collected at time points 1, 24, 48, 72, 96, 168, 240, and 336 hours. At each time point, 1 ml of blood was collected into potassium-EDTA tubes and centrifuged. The plasma supernatants were collected and frozen until the samples were analyzed.
The level of FZD8-Fc variant protein present in the plasma at each time point was quantified and the half-life of each FZD8-Fc variant was calculated.

54F03: Fri domain of human FZD8 fused to human IgG1 Fc with GRA linker; SEQ ID NO:1
half-life ([1]; 2 mg/kg): 163 h | half-life ([1]; 10 mg/kg): 157 h | cells expressing Muc16 [2]: increase in cells expressing Muc16 | cells expressing CK20 [3]: increase in cells expressing CK20 | proliferating cells denoted by expression of Ki67 [4]: decrease in proliferating cells | cells expressing sialomucins (alcian blue) ([4]; vs control antibody or gemcitabine alone): increase in cells expressing sialomucins | reduction of tumor growth as compared to control antibody [5]: 48% | t1/2 in hours [6]: 162 h
